The values that follow come from PMC10705561 (bioRxiv, 2023).

In experiment [1] the test system is rNsp5-L50F/E166V recombinant SARS-CoV-2. Format: cell-based.
Experiment [2] deals with rNsp5-S144M recombinant SARS-CoV-2. Format: cell-based.

`CC(C)(C)[C@H](NC(=O)C(F)(F)F)C(=O)N1C[C@H]2[C@@H]([C@H]1C(=O)N[C@H](C#N)C[C@@H]1CCNC1=O)C2(C)C` [nirmatrelvir]: the “EC50 fold-increase compared to WT” value came to 24.2 in experiment [1] and 12.5 in experiment [2].
